Data from PMC7053747 (PLoS ONE, 2020).
Like-named read-outs stand apart in the source and are kept apart here.

Legend:
[1] = biological target: T1, adrenergic alpha2B receptor (Homo sapiens, UniProt P18089); assay: biochemical; format: binding
T1 construct: host or cells: transient HEKT cells
T1 sequence (P18089 1-450): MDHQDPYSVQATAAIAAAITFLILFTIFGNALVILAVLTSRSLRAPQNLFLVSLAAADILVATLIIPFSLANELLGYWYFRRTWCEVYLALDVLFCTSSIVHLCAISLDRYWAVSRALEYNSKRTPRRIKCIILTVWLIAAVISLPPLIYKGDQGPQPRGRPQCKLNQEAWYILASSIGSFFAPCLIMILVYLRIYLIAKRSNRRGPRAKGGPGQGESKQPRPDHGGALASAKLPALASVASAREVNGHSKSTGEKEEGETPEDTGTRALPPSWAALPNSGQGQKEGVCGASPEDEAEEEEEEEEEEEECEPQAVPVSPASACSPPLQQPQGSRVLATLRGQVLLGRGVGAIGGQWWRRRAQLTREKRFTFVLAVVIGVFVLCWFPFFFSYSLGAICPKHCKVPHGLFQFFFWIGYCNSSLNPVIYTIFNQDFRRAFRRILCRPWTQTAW

delta opioid receptor = delta opioid receptor (Homo sapiens, UniProt P41143); assay: biochemical; format: binding
[2] = biological target: T2, adrenergic alpha2A receptor (Homo sapiens, UniProt P08913); assay: biochemical; format: binding
T2 sequence (P08913 1-465): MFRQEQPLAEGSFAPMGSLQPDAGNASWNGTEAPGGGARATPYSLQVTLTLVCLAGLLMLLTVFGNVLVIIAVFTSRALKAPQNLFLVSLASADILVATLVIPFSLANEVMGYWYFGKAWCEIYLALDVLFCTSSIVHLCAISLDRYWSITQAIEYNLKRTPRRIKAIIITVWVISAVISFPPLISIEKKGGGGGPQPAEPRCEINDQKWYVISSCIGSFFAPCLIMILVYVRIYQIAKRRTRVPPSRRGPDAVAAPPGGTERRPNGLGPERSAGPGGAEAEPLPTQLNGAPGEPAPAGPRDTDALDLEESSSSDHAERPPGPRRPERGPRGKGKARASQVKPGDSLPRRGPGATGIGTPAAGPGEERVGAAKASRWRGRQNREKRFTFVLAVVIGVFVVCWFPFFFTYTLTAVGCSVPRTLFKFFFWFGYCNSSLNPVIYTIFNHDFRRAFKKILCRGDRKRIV

serotonin 5HT2A receptor = biological target: T3, serotonin 5HT2A receptor (Homo sapiens, UniProt P28223); assay: biochemical; format: binding
T3 construct: host or cells: transient HEKT cells (ATCC CRL-11268)

[3] = biological target: T4, adrenergic alpha2C receptor (Homo sapiens, UniProt P18825); assay: biochemical; format: binding
T4 sequence (P18825 1-462): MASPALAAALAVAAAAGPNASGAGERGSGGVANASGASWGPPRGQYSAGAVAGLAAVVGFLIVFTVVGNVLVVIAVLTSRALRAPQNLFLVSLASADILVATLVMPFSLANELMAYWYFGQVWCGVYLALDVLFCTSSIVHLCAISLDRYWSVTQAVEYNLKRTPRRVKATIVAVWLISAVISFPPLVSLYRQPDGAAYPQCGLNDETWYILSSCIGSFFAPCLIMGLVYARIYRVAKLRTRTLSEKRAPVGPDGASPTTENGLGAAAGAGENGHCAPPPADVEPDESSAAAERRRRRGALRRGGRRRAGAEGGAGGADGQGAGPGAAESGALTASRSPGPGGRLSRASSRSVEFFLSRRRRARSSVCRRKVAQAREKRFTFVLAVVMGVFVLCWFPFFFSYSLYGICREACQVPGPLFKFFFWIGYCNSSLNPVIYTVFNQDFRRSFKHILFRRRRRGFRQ

kappa opioid receptor = kappa opioid receptor (Homo sapiens, UniProt P41145); assay: biochemical; format: binding
serotonin 5HT1A receptor = biological target: T5, serotonin 5HT1A receptor (Homo sapiens, UniProt P08908); assay: biochemical; format: binding
T5 sequence (P08908 1-422): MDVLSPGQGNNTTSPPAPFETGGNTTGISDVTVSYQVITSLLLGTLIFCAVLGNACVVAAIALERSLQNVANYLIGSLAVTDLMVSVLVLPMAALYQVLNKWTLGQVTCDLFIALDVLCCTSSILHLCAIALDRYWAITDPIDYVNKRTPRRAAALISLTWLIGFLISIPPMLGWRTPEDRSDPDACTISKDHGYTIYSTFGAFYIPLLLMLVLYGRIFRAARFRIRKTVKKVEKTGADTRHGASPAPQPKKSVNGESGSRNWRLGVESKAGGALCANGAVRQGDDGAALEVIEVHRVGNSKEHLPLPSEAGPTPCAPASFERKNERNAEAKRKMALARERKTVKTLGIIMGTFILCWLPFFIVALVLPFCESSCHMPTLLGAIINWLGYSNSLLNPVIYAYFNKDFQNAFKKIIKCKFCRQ

mu opioid receptor [4] = biological target: mu opioid receptor (Homo sapiens, UniProt P35372); assay: biochemical; format: binding
mouse opioid receptor = conditions: read-out: binding affinity; cited from earlier work
[5] = test system: rodent mu opioid receptors; conditions: cited from earlier work
human mu opioid receptor [6] = conditions: cited from earlier work
[7] = biological target: rodent kappa opioid receptor; conditions: read-out: binding affinity; cited from earlier work
[8] = biological target: human delta opioid receptor; conditions: read-out: binding affinity; cited from earlier work
human mu opioid receptor [9] = conditions: read-out: binding affinity; cited from earlier work
[10] = biological target: rodent delta opioid receptor; conditions: read-out: binding affinity; cited from earlier work
[11] = biological target: rodent mu opioid receptor; conditions: read-out: binding affinity; cited from earlier work
[12] = biological target: human kappa opioid receptor; conditions: read-out: binding affinity; cited from earlier work
mu opioid receptor [13] = conditions: cited from earlier work

delta opioid receptor, sequence (P41143 whole entry): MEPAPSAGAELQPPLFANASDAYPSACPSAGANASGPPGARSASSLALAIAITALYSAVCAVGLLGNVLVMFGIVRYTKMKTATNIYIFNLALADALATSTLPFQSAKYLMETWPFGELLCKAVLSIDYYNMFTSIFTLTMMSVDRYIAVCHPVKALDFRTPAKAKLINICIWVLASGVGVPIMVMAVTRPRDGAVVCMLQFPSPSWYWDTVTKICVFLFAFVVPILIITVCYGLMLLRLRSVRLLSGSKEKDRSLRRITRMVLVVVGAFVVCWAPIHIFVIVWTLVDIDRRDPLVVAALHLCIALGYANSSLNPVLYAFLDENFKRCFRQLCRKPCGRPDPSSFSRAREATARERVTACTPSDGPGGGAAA
T3 sequence (P28223 whole entry): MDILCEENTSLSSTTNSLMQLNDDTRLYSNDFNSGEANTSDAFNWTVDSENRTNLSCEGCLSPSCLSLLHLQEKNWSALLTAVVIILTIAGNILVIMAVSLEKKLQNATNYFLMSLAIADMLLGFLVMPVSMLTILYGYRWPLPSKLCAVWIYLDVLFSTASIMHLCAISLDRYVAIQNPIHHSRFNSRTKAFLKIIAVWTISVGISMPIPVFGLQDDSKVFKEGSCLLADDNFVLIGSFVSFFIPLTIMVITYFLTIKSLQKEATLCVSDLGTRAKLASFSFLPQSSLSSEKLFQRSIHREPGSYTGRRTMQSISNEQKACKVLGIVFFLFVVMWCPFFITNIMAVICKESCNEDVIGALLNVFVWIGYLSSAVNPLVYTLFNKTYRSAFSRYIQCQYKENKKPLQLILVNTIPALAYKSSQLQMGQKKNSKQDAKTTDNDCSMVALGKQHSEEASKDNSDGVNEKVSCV
kappa opioid receptor, sequence (P41145 whole entry): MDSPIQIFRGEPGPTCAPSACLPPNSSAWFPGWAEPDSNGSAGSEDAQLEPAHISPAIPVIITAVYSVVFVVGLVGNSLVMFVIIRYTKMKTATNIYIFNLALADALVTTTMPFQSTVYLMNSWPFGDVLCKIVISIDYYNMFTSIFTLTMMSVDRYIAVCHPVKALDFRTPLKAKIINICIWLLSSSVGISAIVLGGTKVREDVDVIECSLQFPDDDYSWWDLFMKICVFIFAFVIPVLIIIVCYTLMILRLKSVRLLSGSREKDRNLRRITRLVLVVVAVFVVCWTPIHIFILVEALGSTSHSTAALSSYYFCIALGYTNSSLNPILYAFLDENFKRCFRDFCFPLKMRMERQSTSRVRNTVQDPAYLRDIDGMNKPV
mu opioid receptor (Homo sapiens, UniProt P35372), sequence (P35372 whole entry): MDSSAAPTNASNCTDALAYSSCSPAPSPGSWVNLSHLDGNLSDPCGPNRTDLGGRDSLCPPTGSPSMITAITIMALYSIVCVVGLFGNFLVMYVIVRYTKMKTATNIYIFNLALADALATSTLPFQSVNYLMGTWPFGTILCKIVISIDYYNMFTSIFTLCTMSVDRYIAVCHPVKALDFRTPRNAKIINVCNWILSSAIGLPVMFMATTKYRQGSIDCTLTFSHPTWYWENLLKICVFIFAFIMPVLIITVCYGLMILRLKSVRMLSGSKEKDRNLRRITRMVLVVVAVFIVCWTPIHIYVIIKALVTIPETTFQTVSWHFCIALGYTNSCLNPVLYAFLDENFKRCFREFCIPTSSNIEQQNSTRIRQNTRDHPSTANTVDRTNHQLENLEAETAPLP

Compound | Ki [1] [µM] | Ki (delta opioid receptor) [µM] | Ki (mu opioid receptor [4]) [µM] | Ki [2] [µM] | Ki (serotonin 5HT2A receptor) [µM] | Ki [3] [µM] | Ki (kappa opioid receptor) [µM] | Ki (serotonin 5HT1A receptor) [µM] | further results
CC[C@@H]1CN2CC[C@@]3(O)C(=Nc4cccc(OC)c43)[C@@H]2C[C@@H]1/C(=C\OC)C(=O)OC [Compound 7, 7-Hydroxymitragynine] |  |  |  |  |  |  |  |  | Ki ([1]; read-out: Ki): > 10 µM; Ki (delta opioid receptor; read-out: Ki): 0.47 µM; Ki ([2]; read-out: Ki): > 10 µM; Ki (serotonin 5HT2A receptor; read-out: Ki): > 10 µM; Ki ([3]; read-out: Ki): > 10 µM; Ki (kappa opioid receptor; read-out: Ki): 0.32 µM; Ki (serotonin 5HT1A receptor; read-out: Ki): > 10 µM
COC(=O)C1=CO[C@@H](C)[C@@H]2CN3CCc4c([nH]c5ccccc45)[C@@H]3C[C@H]12 [Compound 12, Tetrahydroalstonine] | 0.04 | > 10 | > 10 | 0.018 | 2.6 | 0.053 | > 10 | 0.38 | 
CC[C@@H]1CN2CC[C@]3(C(=O)Nc4ccccc43)[C@@H]2C[C@@H]1/C(=C\OC)C(=O)OC [Compound 14, Corynoxine B] | > 10 | 7.6 | 1.6 | > 10 | > 10 | > 10 | > 10 | > 10 | 
CC[C@H]1CN2CCc3c([nH]c4cccc(OC)c34)[C@@H]2C[C@@H]1/C(=C\OC)C(=O)OC [Compound 2, Speciogynine] |  |  |  |  |  |  |  |  | Ki ([1]; read-out: Ki): 2.6 µM; Ki (delta opioid receptor; read-out: Ki): > 10 µM; Ki (mouse opioid receptor): < 10 µM; Ki ([2]; read-out: Ki): 0.36 µM; Ki (serotonin 5HT2A receptor; read-out: Ki): 2.9 µM; Ki ([3]; read-out: Ki): 0.68 µM; Ki (kappa opioid receptor; read-out: Ki): 3.6 µM; Ki (serotonin 5HT1A receptor; read-out: Ki): 0.54 µM
Mitragynine [Compound 1] |  |  |  |  |  |  |  |  | Ki ([1]; read-out: Ki): 4.9 µM; Ki (delta opioid receptor; read-out: Ki): 6.5 µM; functional activity (BRET) [5]: competitive antagonist; Ki ([2]; read-out: Ki): 2.3 µM; Ki (serotonin 5HT2A receptor; read-out: Ki): 7.3 µM; functional activity (BRET) (human mu opioid receptor [6]): partial agonist; Ki ([3]; read-out: Ki): 3.5 µM; Ki (kappa opioid receptor; read-out: Ki): 1.3 µM; Ki (serotonin 5HT1A receptor; read-out: Ki): 5.8 µM
C=C[C@H]1CN2CC[C@@]3(C(=O)Nc4ccccc43)[C@@H]2C[C@@H]1/C(=C\OC)C(=O)OC [Compound 21, Isocorynoxeine] | > 10 | > 10 | > 10 | > 10 | > 10 | > 10 | > 10 | > 10 | 
C=C[C@H]1CN2CCc3c([nH]c4cccc(OC)c34)[C@@H]2C[C@@H]1/C(=C\OC)C(=O)OC [Compound 5, Paynantheine] |  |  |  |  |  |  |  |  | Ki [7]: 0.89 ± 0.3 µM; Ki [8]: > 10 µM; functional activity (BRET) [5]: no agonist or antagonist activity; Ki (human mu opioid receptor [9]): 0.41 ± 0.2 µM; Ki [10]: 4.3 ± 0.7 µM; functional activity (BRET) (human mu opioid receptor [6]): antagonist; Ki [11]: 0.67 ± 0.08 µM; Ki [12]: 2.6 ± 0.4 µM
COC(=O)C1=CO[C@@H](C)C2CN3CCc4c([nH]c5ccccc45)[C@@H]3C[C@H]12 (some centres unmarked) [Compound 11, Ajmalicine] |  | > 10 | 8.96 | 0.045 | > 10 | 0.065 | > 10 | 0.42 | 
CCOC(=O)C1(c2ccccc2)CCN(CCC(C#N)(c2ccccc2)c2ccccc2)CC1 [diphenoxylate] |  |  |  |  |  |  |  |  | Ki (mu opioid receptor [13]): 0.0124 µM
CCC(=O)O[C@](Cc1ccccc1)(c1ccccc1)[C@H](C)CN(C)C [propoxyphene] |  |  |  |  |  |  |  |  | Ki (mu opioid receptor [13]): 0.12 µM
CC[C@H]1CN2CC[C@@]3(C(=O)Nc4ccccc43)[C@@H]2C[C@@H]1/C(=C\OC)C(=O)OC [Compound 16, Isorhynchophylline] | > 10 | 6.4 |  | 4.8 | > 10 | > 10 | > 10 | > 10 | 
C=C[C@H]1CN2CC[C@]3(C(=O)Nc4ccccc43)[C@@H]2C[C@@H]1/C(=C\OC)C(=O)OC [Compound 20, Corynoxeine] | 8.4 | > 10 | > 10 | > 10 | > 10 | > 10 | > 10 | > 10 | 
